Measured values published in patent publication US11655216B2 (priority 2016, dated 2023).

What was measured:
[1] = target: T1, glutathione-S-transferase (GST) tagged LXRbeta LBD (ligand binding domain) (Homo sapiens, UniProt P55055); experiment: LanthaScreen TR-FRET Liver X Receptor Coactivator Assay, LXR beta; assay type: biochemical; details: for EC50: LXR beta IP, potency (Inflection Point), compound-induced co-activator recruitment, TR-FRET; for Emax: read-out: LXR beta actiivty at max dose, efficacy (% Emax) in relation to reference dual agonist T0901317
T1 construct: purchased Invitrogen pv4658
T1 sequence (P55055 222-460 limits assumed): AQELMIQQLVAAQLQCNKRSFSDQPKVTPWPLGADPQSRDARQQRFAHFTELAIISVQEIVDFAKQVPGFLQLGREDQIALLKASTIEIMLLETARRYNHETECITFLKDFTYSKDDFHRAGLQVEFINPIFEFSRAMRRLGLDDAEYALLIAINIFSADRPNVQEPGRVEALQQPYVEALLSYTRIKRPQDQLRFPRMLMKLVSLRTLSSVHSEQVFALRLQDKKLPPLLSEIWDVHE
Procedure, shortened: (§1)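 TR-FRET read-out of coactivator recruitment: fluorescein-coactivator peptide plus Tb-anti-GST antibody added to LBD preincubated with compound; incubated at RT before reading.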

[2] = target: T2, glutathione-S-transferase (GST) tagged LXRalpha LBD (ligand binding domain) (Homo sapiens, UniProt Q13133); experiment: biochemical; details: for EC50: LXR alpha IP; for EC50 / LXR alpha IP: potency (Inflection Point), compound-induced co-activator recruitment, TR-FRET; for Emax: read-out: LXR alpha actiivty at max dose, efficacy (% Emax) in relation to reference dual agonist T0901317
T2 construct: purchased Invitrogen pv4655
T2 sequence (Q13133 209-447 limits assumed): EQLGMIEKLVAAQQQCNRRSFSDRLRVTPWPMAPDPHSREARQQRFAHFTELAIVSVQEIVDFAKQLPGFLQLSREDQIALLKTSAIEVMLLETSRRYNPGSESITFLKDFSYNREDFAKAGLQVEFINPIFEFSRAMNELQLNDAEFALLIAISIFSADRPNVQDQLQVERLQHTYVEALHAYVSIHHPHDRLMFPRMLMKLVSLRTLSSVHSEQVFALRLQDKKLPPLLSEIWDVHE
Procedure, shortened: as §1

Compound	EC50 [1] [nM]	Emax [1] [%]	EC50 [2] [nM]	Emax [2] [%]	LXR alpha IP [2]
CN(C)C(=O)c1ccc(OCCCCC2CCN(S(=O)(=O)c3ccccc3C(F)(F)F)CC2)nc1Cl [Example 7-1, 2-chloro-N,N-dimethyl-6-(4-(1-(2-(trifluoromethyl)phenylsulfonyl)piperidin-4-yl)butoxy)nicotinamide]	36	138	776	82	–
CN(C)C(=O)c1ccc(OCCCCC2CCN(S(=O)(=O)c3c(Cl)cccc3Cl)CC2)nc1Cl [Example 7-2, 2-chloro-6-(4-(1-(2,6-dichlorophenylsulfonyl)piperidin-4-yl)butoxy)-N,N-dimethylnicotinamide]	23	122	429	80	–
CN(C)C(=O)c1ccc(OCCCCC2CCN(S(=O)(=O)c3ccccc3C#N)CC2)nc1Cl [Example 7-3, 2-chloro-6-(4-(1-(2-cyanophenylsulfonyl)piperidin-4-yl)butoxy)-N,N-dimethylnicotinamide]	112	120	2930	57	–
O=C(c1cscn1)N1CCC(CCCCOc2ccc(C(=O)N3CCCC3)c(Cl)c2)CC1 [Example 8-20, (2-chloro-4-(4-(1-(thiazole-4-carbonyl)piperidin-4-yl)butoxy)phenyl) (pyrrolidin-1-yl)methanone]	4410	25	–	4	No IP
CN(C)C(=O)c1ccc(OCCCCC2(C)CCN(C(=O)C3(c4ccccc4)CCCC3)CC2)cc1Cl [Example 9-1, 2-chloro-N,N-dimethyl-4-(4-(4-methyl-1-(1-phenylcyclopentanecarbonyl)piperidin-4-yl)butoxy)benzamide]	51	88	411	13	–
CN(C)C(=O)c1ccc(OCCC2CC23CCN(C(=O)C(C)(C)c2ccccc2)CC3)nc1Cl (stereo not drawn) [Example 15-3, 2-chloro-N,N-dimethyl-6-(2-(6-(2-methyl-2-phenylpropanoyl)-6-azaspiro[2.5]octan-1-yl)ethoxy)nicotinamide]	5	102	202	67	–
CN(C)C(=O)c1ccc(OCC2CC3(CCN(C(=O)C(C)(C)c4ccccc4)CC3)C2)cc1Cl [Example 33-2, 2-chloro-N,N-dimethyl-4-((7-(2-methyl-2-phenylpropanoyl)-7-azaspiro[3.5]nonan-2-yl)methoxy)benzamide]	220	60	–	8	No IP
CN(C)C(=O)c1ccc(OCCC2CC3(CCN(C(=O)C(C)(C)c4ccccc4)CC3)C2)cc1Cl [Example 34-2, 2-chloro-N,N-dimethyl-4-(2-(7-(2-methyl-2-phenylpropanoyl)-7-azaspiro[3.5]nonan-2-yl)ethoxy)benzamide]	26	90	268	25	–
CC(C)(C(=O)N1CCC2(CC1)CC(CCOc1ccc(C(=O)N3CCCC3)c(Cl)c1)C2)c1ccccc1 [Example 34-3, 1-(2-(2-(3-chloro-4-(pyrrolidine-1-carbonyl)phenoxy)ethyl)-7-azaspiro[3.5]nonan-7-yl)-2-methyl-2-phenylpropan-1-one]	70	65	292	13	–
